Results on one molecule are retold here after patent US11938129B2, “Methods and compositions for the treatment of vascular disease” (THE GENERAL HOSPITAL CORPORATION, priority 2018, dated 2024).

What all share (assay type): in vivo, mouse
Assay [1] deals with a-SMA and SM22a. The assay is described as follows: immunofluorescence of contractile proteins in ligated carotids. The procedure:
(§1) All mice used in this study were cared for under strict compliance with the Partners Institutional Animal Care and Use Committee (IACUC), regulated by the United States Public Health Service (USPHS). Carotid ligations were performed in 10 week old mice. Briefly, animals were anesthetized using intraperitoneal ketamine/xylazine (80 and 12 mg/kg, respectively) followed by a small incision in the neck to expose the carotid artery. Then the left carotid was ligated at the carotid bifurcation level using a 8-0 silk suture. At 21 days mice were sacrificed and carotids were collected for histological analysis. Approximately 98% of wild type mice developed stenotic lesions. Mice that developed thrombosis of the ligated carotid were excluded from the study (−1¬2%). Malatl knockout mice were kindly provided by Dr. David Spector (Cold Spring Harbor, N.Y.). Hdac9 flox/flox/Talgn-cre mice were generated as previously reported (10). Ezh2 fl/fl/ (STOCK Ezh2tm2Sho/J) and Myh11-cre-GFP (B6.Cg-Tg(Myh11-cre,-EGFP)2Mik/J) were crossed to generate smooth muscle cell-Ezh2 deficient mice. All above mice and wild-type mice (C57BL/6J) were purchased from Jackson laboratory. For tissue analysis, animals were euthanized through inhalational isoflurane (Sigma, St, Louis, Mo.) prior to tissue collection. All carotid ligation (left carotid) procedures were performed at 10 weeks of age. All experiments were performed on male and female animals at a 1:1 ratio.
Left and right carotids were cryosectioned using OCT standard protocol and sectioning. The right carotid artery was unligated and served as an internal control. Neoinitima analysis was performed from hematoxylin and eosin (H & E) stained horizontal cross-sections embedded in Optimal Cutting Temperature compound (OCT). Briefly, the distal 0.2 mm of carotid from the ligation suture site were discarded followed by generation of 20 slides (10 pM). Slides 1, 5, 10, and 15 were H&E stained for quantification of neointima. For quantification of the neointima, internal and external elastic lamina perimeters and medial thickness from 4 quadrants were measured and averaged using Image J software from the National Institutes of Health (NIH). Slides 2-4, 6-9, and 11-14 were used for immunofluorescence staining.
Cohorts of 10-week-old wild-type mice were treated with oral administration in drinking water of GSK343 24 hrs before left carotid ligation and following treatment for 3 weeks. GSK343 inhibitor (25 mg) was dissolved in 1 mL of DMSO to obtain a stock solution of 46 mM. Then, 250 ml of drinking water was supplemented with 250 pl of GSK343 stock solution. Control group for was given with equal volumes of sterile water. Bottles containing GSK343 were replaced with fresh water supplied with drug every 3 days. […]

Assay [2] has as its system PDGFR. The assay is described as follows: immunofluorescence of p-PDGFR in ligated carotid. The settings on record: media and intima of carotid arteries. The method, then: as §1, with “Ezh2 fl/fl/ (STOCK Ezh2tm2Sho/J) and Myh11-cre-GFP (B6.Cg-Tg(Myh11-cre,-EGFP)2Mik/J) were crossed to generate smooth muscle cell-Ezh2 deficient mice. All above mice and wild-type mice (C57BL/6J) were purchased from Jackson laboratory. For tissue analysis, animals were euthanized through inhalational isoflurane (Sigma, St, Louis, Mo.) prior to tissue collection. All carotid ligation (left carotid) procedures were performed at 10 weeks of age. All experiments were performed on male and female animals at a 1:1 ratio.” left out
Left and right carotids were cryosectioned using OCT standard protocol and sectioning. […] Slides 1, 5, 10, and 15 were H&E stained for quantification of neointima. For quantification of the neointima, internal and external elastic lamina perimeters and medial thickness from 4 quadrants were measured and averaged using Image J software from the National Institutes of Health (NIH). […]

The test system of assay [3] is VSMC phenotypic markers. Put plainly: expression of VSMC phenotypic markers in aortas of treated Fbn1C1039G/+ mice. The settings on record: aortas of Fbn1C1039G/+ mice treated from two to six months. The method, then: Total RNA was prepared from tissue or primary cells using RNeasy kit (Qiagen) following the manufacturer's protocol. The cDNA was prepared by reverse transcription, and expression of SMC contractile genes were analyzed by qRT-PCR on SYBR green system (Applied Biosystem, Foster city, CA). 50 pL of plasma from wild-type or Fbn1cl° 39G1+ mice were used to prepare total RNA as mentioned above. Expression results were analyzed by the ddCT method and GAPDH (encoding glyceraldehyde-3-phosphate dehydrogenase) was used as a housekeeping gene. Fold change were calculated by taking the average over all the control samples as the baseline. […] The supernatant was removed and the vesicular fraction was resuspended with 750 pL of TRizol reagent followed by RNA extraction using the RNeasy kit (Qiagen) according to the manufacturer's protocol. Cohorts of 8-week-old wild-type or Fbn1cw3gGi+ mice were treated with oral administration in drinking water of either Losartan or GSK343 for 20 weeks (FIG. 5). […] Then 200 mL of drinking water was supplemented with 250 pL of GSK343 stock solution. Control group for either drug treatment was given with equal volumes of sterile water. Bottles containing either losartan or GSKS343 were replaced with fresh water supplied with drugs every 3 days. For experiments described in FIG. 5A-5C, 16-week-old wild-type or Fbnicw3gGi+ mice were treated for 8 weeks and as described above. Additionally, a group of mice were given a combination of both losartan and GSK343 at the same concentrations as of other single drug treatments. Aortic dimensions were monitored monthly by echocardiograms as mentioned above.

The subject of assay [4] is aortic wall of Fbn1C1039G/+ mice. Put plainly: histologic analysis of aortas of treated Fbn1C1039G/+ mice. The settings on record: aortas of Fbn1C1039G/+ mice treated from two to six months. The procedure:
Latex was injected into the left ventricular apex under low pressure until it was visible in the femoral artery. Animals were then fixed in Formalin (10%) for 24 hours before transfer to 70% ethanol for dissection and storage. Aortas were then removed from the animals or dissected in situ for photography prior to paraffinization and sectioning (10 pM). Slides were produced for tissue staining or stained with standard stains including H&E staining, collagen deposition (Trichrome Stain (Masson) Kit, Sigma, USA), elastin (Verhoeff-Van Gieson, Thermo Scientific, MI, USA) or F-actin (ActinGreen™ 488 ReadyProbes, ThermoFisher Scientific, USA) for quantitative analysis. Elastin integrity score was rated by blinded observers and graded on an arbitrary scale of 5 (indicating high quality elastic fiber) to 1 (indicating severe elastin fragmentation). For nuclear staining aortas from human and mice were cryosectioned using OCT standard protocol as described previously (Fischer et al., 2008). Cohorts of 8-week-old wild-type or Fbn1cw3gGi+ mice were treated with oral administration in drinking water of either Losartan or GSK343 for 20 weeks (FIG. 5). […] Then 200 mL of drinking water was supplemented with 250 pL of GSK343 stock solution. Control group for either drug treatment was given with equal volumes of sterile water. Bottles containing either losartan or GSKS343 were replaced with fresh water supplied with drugs every 3 days. For experiments described in FIG. 5A-5C, 16-week-old wild-type or Fbnicw3gGi+ mice were treated for 8 weeks and as described above. Additionally, a group of mice were given a combination of both losartan and GSK343 at the same concentrations as of other single drug treatments. Aortic dimensions were monitored monthly by echocardiograms as mentioned above.

As to `CCCc1cc(C)[nH]c(=O)c1CNC(=O)c1cc(-c2ccnc(N3CCN(C)CC3)c2)cc2c1cnn2C(C)C` [GSK343], in assay [1] (ligated carotid, in contrast to carotid VSMCs in wild type animals), the “expression of α-SMA in carotid VSMCs” value is “robust expression”. In addition, the “expression of contractile proteins such as a-SMA and SM22a” value in assay [1] (ligated carotids of treated mice) is “improved the expression of contractile proteins”. Moreover, the “phosphorylation of PDGFR” value in assay [2] is “dramatic reduction”. Further, in assay [3], the contractile elements entry was “better recovery of contractile elements” and the “synthetic markers (Col1a1, Col3a1, Gja1, Mmp2)” value is given as “inability to repress synthetic markers”. Besides, in assay [4], the “aortic architecture and filamentous actin content” value is reported as “improvement”; the elastin integrity result is recorded as “not a significant improvement in elastin fiber integrity”.
